The values below come from US10464926B2, “Heterobicyclic compounds and their use for the treatment of tuberculosis” (OTSUKA PHARMACEUTICAL CO., LTD., priority 2014, dated 2019).

The melting point is the temperature, or range, at which the solid turns liquid. As to `O=C1CCc2c(OCC3(O)CCN(c4ccc(OCc5ccccc5)cc4F)CC3)ccc(F)c2N1`, the melting point was 193 °C.

As for `CCOc1cc(F)c(N2CCC(O)(COc3ccc(F)c4c3CCC(=O)N4)CC2)cc1F`, the melting point fell in the range of 174.1 to 174.5 °C.

Compound `CCOCc1ccc(N2CCC(O)(COc3ccc(F)c4c3CCC(=O)N4)CC2)c(F)c1` registered a melting point of 154.2 to 154.5 °C.

Compound `O=C1CCc2ccc(OCC3(O)CCN(c4ccc(Cl)cc4F)CC3)cc2N1` registered a melting point of 207.8 to 208.7 °C.

On to `O=C1CCc2cc(OCC3(O)CCN(c4ccc(Cl)cc4F)CC3)ccc2N1`, for which the melting point was 219.1 to 220 °C.

`CCOc1cc(N2CCC(O)(COc3ccc(Cl)c4c3CCC(=O)N4)CC2)c(F)cc1Cl` showed a melting point of 228.1 to 229 °C.

`Cc1cc(N2CCC(O)(COc3ccc(Cl)c4c3CCC(=O)N4)CC2)c(F)cc1Cl` yielded a melting point of 212.2 to 213.1 °C.

With `CCOc1cc(F)c(N2CCC(O)(COc3ccc(Cl)c4c3CCC(=O)N4)CC2)c(F)c1`, the melting point was in the range of 180.6 to 181 °C.

Compound `O=c1ccc2c(OCC3(O)CCN(c4ccc(Cl)cc4F)CC3)ccc(F)c2[nH]1` gave a melting point of 255 to 256 °C.

As to `O=C1CCc2c(OCC3(O)CCN(c4ccc(OCc5ccc(Cl)cc5Cl)cc4F)CC3)ccc(F)c2N1`, the melting point was in the range of 175.9 to 177.1 °C.

In the case of `O=C1CCc2c(OCC3(O)CCN(c4ncc(C(F)(F)F)cc4Cl)CC3)ccc(F)c2N1`, the melting point was 172.5 to 172.7 °C.

For the compound `O=C1CCc2c(OCC3(O)CCN(c4cc(OCCF)c(Cl)cc4F)CC3)ccc(Cl)c2N1`, the melting point is 223 to 223.3 °C.

For the compound `O=C1CCc2c(OCC3(O)CCN(c4cc(OCC(F)(F)F)c(Cl)cc4F)CC3)ccc(F)c2N1`, the melting point was in the range of 200.6 to 201 °C.

Compound `O=C1CCc2c(OCC3(O)CCN(c4c(F)cc(OC(F)F)cc4F)CC3)ccc(F)c2N1` yielded a melting point of 172.6 to 172.7 °C.

Take `O=C1CCc2c(OCC3(O)CCN(c4c(F)cc(OC(F)F)cc4F)CC3)ccc(Cl)c2N1`: the melting point was 143.6 to 143.7 °C.

`COc1cc(N2CCC(O)(COc3ccc(F)c4c3CCC(=O)N4)CC2)c(F)cc1Cl` came in with a melting point of 232.4 to 232.5 °C.

As to `CCOc1cnc(N2CCC(O)(COc3ccc(F)c4c3CCC(=O)N4)CC2)c(Cl)c1`, the melting point was 187.9 to 190.2 °C.

`O=C1CCc2c(OCC3(O)CCN(c4ncc(Br)cc4F)CC3)ccc(F)c2N1` registered a melting point of 197.4 to 203.9 °C.

For `O=C1CCc2c(OCC3(O)CCN(c4cc5c(cc4F)OC(F)(F)O5)CC3)ccc(Cl)c2N1`, the melting point lay within 213.4 to 213.5 °C.

`O=C1CCc2c(OCC3(O)CCN(c4ccc(Cl)cn4)CC3)ccc(F)c2N1`: the melting point is 192 to 192.3 °C.

Regarding `CCOc1cc(N2CCC(O)(COc3ccc(Cl)c4c3CCC(=O)N4)CC2)c(F)cc1F`, the melting point was 182.1 to 182.4 °C.

With `COc1cc(N2CCC(O)(COc3ccc(Cl)c4c3CCC(=O)N4)CC2)c(F)cc1F`, the melting point lay within 191.4 to 191.7 °C.

Consider `O=C1CCc2c(OCC3(O)CCN(c4c(F)cc(Br)cc4F)CC3)ccc(F)c2N1`, for which the melting point lay in the range of 217.7 to 217.9 °C.

`O=C1CCc2c(OCC3(O)CCN(c4cc(CCOc5ccc(F)cc5)c(Cl)cc4F)CC3)ccc(F)c2N1` had a melting point of 156 to 156.1 °C.

Turning to `CCCc1cc(N2CCC(O)(COc3ccc(F)c4c3CCC(=O)N4)CC2)c(F)cc1F`, the melting point is 184.7 to 184.8 °C.

The compound `CCSc1cc(F)c(N2CCC(O)(COc3ccc(Cl)c4c3CCC(=O)N4)CC2)c(F)c1` had a melting point of 157.4 to 157.5 °C.

With `O=C1CCc2c(OCC3(O)CCN(c4ccc(OCc5ccc(C(F)(F)F)cn5)cc4F)CC3)ccc(F)c2N1`, the melting point was in the range of 194.9 to 195.1 °C.

Consider `O=C1CCc2c(OCC3(O)CCN(c4c(F)cc(OCC(F)(F)F)cc4F)CC3)ccc(F)c2N1`, for which the melting point was in the range of 189.8 to 189.9 °C.

`O=C1CCc2c(OCC3(O)CCN(c4c(F)cc(OCC(F)(F)F)cc4F)CC3)ccc(Cl)c2N1` displayed a melting point of 178.6 to 178.7 °C.

Take `O=C1CCc2c(OCC3(O)CCN(c4cc5c(cc4F)OC(F)(F)O5)CC3)cc(F)c(F)c2N1`: the melting point was 258.9 to 259 °C (dec.).

Consider `O=C1CCc2c(OCC3(O)CCN(c4c(F)cc(Br)cc4F)CC3)cc(F)c(Cl)c2N1`, for which the melting point is 200.5 to 200.8 °C.

On to `O=C1CCc2c(OCC3(O)CCN(c4c(F)cc(Br)cc4F)CC3)cc(F)c(F)c2N1`, for which the melting point lay within 233.1 to 233.2 °C.

Compound `O=C1CCc2c(OCC3(O)CCN(c4ccc5c(c4)OC(F)(F)O5)CC3)ccc(F)c2N1` yielded a melting point of 198.4 to 198.5 °C.

For the compound `O=C1CCc2c(OC[C@]3(O)CCN(c4c(F)cc(Cl)cc4F)C[C@H]3O)cc(F)c(F)c2N1`, the melting point fell in the range of 199 to 201 °C.

`O=C1CCc2c(OC[C@]3(O)CCN(c4ccc(F)cc4Cl)C[C@H]3O)cc(F)c(Cl)c2N1`: the melting point was 175.7 to 177 °C.

`O=C1CCc2c(OC[C@]3(O)CCN(c4cc(F)c(Cl)cc4F)C[C@H]3O)ccc(F)c2N1` showed a melting point of 199 to 199.7 °C.

For the compound `O=C1CCc2c(OC[C@]3(O)CCN(c4ccc(F)cc4Cl)C[C@H]3O)cc(F)c(F)c2N1`, the melting point lay within 192.2 to 193.2 °C.

In turn, `O=C1CCc2c(OC[C@]3(O)CCN(c4cc(Cl)c(F)cc4Cl)C[C@H]3O)ccc(Cl)c2N1` showed a melting point of 237.7 to 238.6 °C.

`O=C1CCc2c(OC[C@]3(O)CCN(c4cc(F)c(Cl)cc4Cl)C[C@H]3O)ccc(Cl)c2N1`: the melting point fell in the range of 180.2 to 180.6 °C.

Compound `O=C1CCc2c(OC[C@]3(O)CCN(c4ccc(OC(F)(F)F)cc4F)C[C@H]3O)ccc(F)c2N1` showed a melting point of 161.6 to 161.9 °C.

Compound `O=C1CCc2c(OC[C@]3(O)CCN(c4ccccc4F)C[C@H]3O)ccc(F)c2N1` yielded a melting point of 177.7 to 178 °C.

On to `O=C1CCc2c(OC[C@]3(O)CCN(c4ccc(OC(F)(F)F)cc4)C[C@H]3O)ccc(F)c2N1`, for which the melting point is 196 to 197.1 °C.

`O=C1CCc2c(OC[C@]3(O)CCN(c4c(F)cc(Br)cc4F)C[C@H]3O)cc(F)c(Cl)c2N1` came in with a melting point of 199 to 199.6 °C.

For the compound `O=C1CCc2c(OC[C@]3(O)CCN(c4nc5ccccc5o4)C[C@H]3O)ccc(F)c2N1`, the melting point lay in the range of 190 to 191 °C.

In turn, `O=C1CCc2c(OC[C@]3(O)CCN(c4nc5ccc(Cl)cc5o4)C[C@H]3O)ccc(F)c2N1` registered a melting point of 219 to 220 °C.

Compound `CCCOc1cc(F)c(N2CC[C@@](O)(COc3ccc(F)c4c3CCC(=O)N4)[C@H](O)C2)c(F)c1` registered a melting point of 194.8 to 195 °C.

As for `CCCCOc1cc(F)c(N2CC[C@@](O)(COc3ccc(F)c4c3CCC(=O)N4)[C@H](O)C2)c(F)c1`, the melting point was in the range of 185.8 to 186.2 °C.

In the case of `O=C1CCc2c(OC[C@@]3(O)CCN(c4ccc(Br)cc4F)C[C@H]3O)ccc(F)c2N1`, the melting point is 194.7 to 194.8 °C.

Turning to `O=c1ccc2c(OC[C@]3(O)CCN(c4c(F)cc(Cl)cc4F)C[C@H]3O)ccc(Cl)c2[nH]1`, the melting point lay in the range of 228.8 to 229.5 °C.

Compound `N#Cc1cc(F)ccc1N1CCC(O)(COc2ccc(F)c3c2CCC(=O)N3)CC1` displayed a melting point of 206 to 206.9 °C.

For the compound `O=C1CCc2c(NCC3(O)CCN(c4ccc(F)cc4Cl)CC3)ccc(F)c2N1`, the melting point is 214 to 215 °C.

On to `O=C1CCc2c(NCC3(O)CCN(c4ccc(Cl)cc4F)CC3)ccc(F)c2N1`, for which the melting point is 225 to 226 °C.

Compound `CN(CC1(O)CCN(c2ccc(Cl)cc2Cl)CC1)c1ccc(F)c2c1CCC(=O)N2` had a melting point of 156 to 157 °C.

Compound `O=C1CCc2c(OCC3(O)CCN(c4nccc5ccccc45)CC3)ccc(F)c2N1` had a melting point of 198 to 199 °C.

In turn, `O=C1CCc2c(OCC3(C(=O)O)CCN(c4ncc(Cl)cc4Cl)CC3)ccc(F)c2N1` yielded a melting point of 276 to 277 °C.

On to `COC(=O)NC1(COc2ccc(F)c3c2CCC(=O)N3)CCN(c2ncc(Cl)cc2Cl)CC1`, for which the melting point worked out at 183 °C.

Compound `CC(=O)NC1(COc2ccc(F)c3c2CCC(=O)N3)CCN(c2ncc(F)cc2C#N)CC1` displayed a melting point of 237.8 to 238.2 °C.

Regarding `N#Cc1cc(F)ccc1N1CCC(COc2ccc(F)c3c2CCC(=O)N3)(ON)CC1`, the melting point lay within 207 to 208 °C.

In turn, `O=C1CCc2c(OCC3(O)CCN(c4ccc(F)cc4Cl)CC3)ccc(F)c2N1` yielded a melting point of 208 °C.

The compound `O=C1CCc2c(OCC3(O)CCN(c4ccc(OC(F)(F)F)cc4)CC3)ccc(F)c2N1` displayed a melting point of 200.7 °C.

`O=C1CCc2c(OCC3(O)CCN(c4cccc(Cl)c4)CC3)ccc(F)c2N1` had a melting point of 169 to 170 °C.

For the compound `O=C1CCc2c(OCC3(O)CCN(c4cccc(Cl)c4Cl)CC3)ccc(F)c2N1`, the melting point amounted to 228.7 °C.

Compound `O=C1CCc2c(OCC3(O)CCN(c4c(F)cc(Cl)cc4F)CC3)ccc(F)c2N1` displayed a melting point of 225.5 to 225.6 °C.

On to `O=C1CCc2c(OCC3(O)CCN(c4ccc(Cl)cc4C(F)(F)F)CC3)ccc(F)c2N1`, for which the melting point fell in the range of 211.3 to 211.5 °C.

`Cc1cc(Cl)ccc1N1CCC(O)(COc2ccc(F)c3c2CCC(=O)N3)CC1` yielded a melting point of 214 to 215 °C.

With `O=C1CCc2c(OCC3(O)CCN(c4ccccc4OC(F)(F)F)CC3)ccc(F)c2N1`, the melting point stood at 168 °C.

Regarding `O=C1CCc2c(OCC3(O)CCN(c4ccc(Cl)cc4Br)CC3)ccc(F)c2N1`, the melting point was determined as 204.9 °C.

With `CC(C)c1cccc(N2CCC(O)(COc3ccc(F)c4c3CCC(=O)N4)CC2)c1`, the melting point lay within 131.1 to 131.3 °C.

With `N#Cc1cccc(N2CCC(O)(COc3ccc(F)c4c3CCC(=O)N4)CC2)c1`, the melting point was in the range of 175 to 177 °C.

In turn, `O=C1CCc2c(OCC3(O)CCN(c4cccc(C(F)(F)F)c4)CC3)ccc(F)c2N1` returned a melting point of 159.4 to 159.5 °C.

Regarding `O=C1CCc2c(OCC3(O)CCN(c4ccc(Br)cc4F)CC3)ccc(F)c2N1`, the melting point lay in the range of 204.8 to 205 °C.

With `CCc1ccc(N2CCC(O)(COc3ccc(F)c4c3CCC(=O)N4)CC2)c(Cl)c1`, the melting point lay in the range of 167.8 to 168 °C.

`CCCCOc1ccc(N2CCC(O)(COc3ccc(F)c4c3CCC(=O)N4)CC2)c(F)c1` gave a melting point of 193.2 to 193.5 °C.

Compound `O=C1CCc2c(OCC3(O)CCN(c4c(F)cc(F)cc4Cl)CC3)ccc(F)c2N1` came in with a melting point of 239.3 to 239.6 °C.

`O=C1CCc2c(OCC3(O)CCN(c4ccc(OC(F)(F)F)cc4F)CC3)ccc(F)c2N1` had a melting point of 174.2 to 174.3 °C.
